Data published in ChEMBL document CHEMBL1129930, “Analogues of methotrexate in rheumatoid arthritis. 2. Effects of 5-deazaaminopterin, 5,10-dideazaaminopterin, and analogues on type II collagen-induced arthritis in mice” (J Med Chem, 1997).

Tests used:
Mus musculus [1] = assay: Tested for antiinflammatory activity on mouse type II collagen arthritis as Paw swelling of all animals in each group on day 37 at intraperitoneal dose of 9 mg/kg; type: functional
Mus musculus [2] = assay: Incidence of disease (mouse type II collagen) was scored as the percentage of animals within each experimental group that exhibited joint or limb inflammation on day 44 at intraperitoneal dose of 4.5 mg/kg; type: functional
Mus musculus [3] = assay: Incidence of disease (mouse type II collagen) was scored as the percentage of animals within each experimental group that exhibited joint or limb inflammation on day 37 at intraperitoneal dose of 4.5 mg/kg; type: functional
Mus musculus [4] = assay: Tested for antiinflammatory activity on mouse type II collagen arthritis as Paw swelling of all animals in each group on day 30 at intraperitoneal dose of 9 mg/kg; type: functional
Mus musculus [5] = assay: Tested for antiinflammatory activity on mouse type II collagen arthritis as Paw swelling of all animals in each group on day 23 at intraperitoneal dose of 4.5 mg/kg; type: functional
Mus musculus [6] = assay: Incidence of disease (mouse type II collagen) was scored as the percentage of animals within each experimental group that exhibited joint or limb inflammation on day 30 at intraperitoneal dose of 9 mg/kg; type: functional
Mus musculus [7] = assay: Incidence of disease (mouse type II collagen) was scored as the percentage of animals within each experimental group that exhibited joint or limb inflammation on day 23 at intraperitoneal dose of 9 mg/kg; type: functional
Mus musculus [8] = assay: Tested for antiinflammatory activity on mouse type II collagen arthritis as Paw swelling of all animals in each group on day 30 at intraperitoneal dose of 4.5 mg/kg; type: functional
Mus musculus [9] = assay: Incidence of disease (mouse type II collagen) was scored as the percentage of animals within each experimental group that exhibited joint or limb inflammation on day 37 at intraperitoneal dose of 9 mg/kg; type: functional
Mus musculus [10] = assay: Tested for antiinflammatory activity on mouse type II collagen arthritis as Paw swelling of all animals in each group on day 44 at intraperitoneal dose of 9 mg/kg; type: functional
Mus musculus [11] = assay: Incidence of disease (mouse type II collagen) was scored as the percentage of animals within each experimental group that exhibited joint or limb inflammation on day 30 at intraperitoneal dose of 4.5 mg/kg; type: functional
Mus musculus [12] = assay: Tested for antiinflammatory activity on mouse type II collagen arthritis as Paw swelling of all animals in each group on day 23 at intraperitoneal dose of 9 mg/kg; type: functional
Mus musculus [13] = assay: Incidence of disease (mouse type II collagen) was scored as the percentage of animals within each experimental group that exhibited joint or limb inflammation on day 44 at intraperitoneal dose of 9 mg/kg; type: functional
Mus musculus [14] = assay: Tested for antiinflammatory activity on mouse type II collagen arthritis as Paw swelling of all animals in each group on day 37 at intraperitoneal dose of 4.5 mg/kg; type: functional
Mus musculus [15] = assay: Tested for antiinflammatory activity on mouse type II collagen arthritis as Paw swelling of all animals in each group on day 44 at intraperitoneal dose of 4.5 mg/kg; type: functional
Mus musculus [16] = assay: Incidence of disease (mouse type II collagen) was scored as the percentage of animals within each experimental group that exhibited joint or limb inflammation on day 23 at intraperitoneal dose of 4.5 mg/kg; type: functional
Mus musculus [17] = assay: Tested for antiinflammatory activity on mouse type II collagen arthritis as Paw swelling* of all animals in each group on day 37 at intraperitoneal dose of 12 mg/kg; type: functional
Mus musculus [18] = assay: Incidence of disease (mouse type II collagen) was scored as the percentage of animals within each experimental group that exhibited joint or limb inflammation on day 37 at intraperitoneal of dose 6 mg/kg; type: functional
Mus musculus [19] = assay: Incidence of disease (mouse type II collagen) was scored as the percentage of animals within each experimental group that exhibited joint or limb inflammation on day 44 at intraperitoneal of dose 12 mg/kg; type: functional
[20] = Concentration required to inhibit the growth of chang liver cells.; type: functional; details: Homo sapiens
Mus musculus [21] = assay: Tested for antiinflammatory activity on mouse type II collagen arthritis as Paw swelling* of all animals in each group on day 23 at intraperitoneal dose of 12 mg/kg; type: functional
Mus musculus [22] = assay: Tested for antiinflammatory activity on mouse type II collagen arthritis as Paw swelling* of all animals in each group on day 44 at intraperitoneal dose of 6 mg/kg; type: functional
Mus musculus [23] = assay: Incidence of disease (mouse type II collagen) was scored as the percentage of animals within each experimental group that exhibited joint or limb inflammation on day 23 at intraperitoneal dose 18 mg/kg; type: functional
Mus musculus [24] = assay: Incidence of disease (mouse type II collagen) was scored as the percentage of animals within each experimental group that exhibited joint or limb inflammation on day 23 at intraperitoneal dose 6 mg/kg; type: functional
Mus musculus [25] = assay: Tested for antiinflammatory activity on mouse type II collagen arthritis as Paw swelling* of all animals in each group on day 44 at intraperitoneal dose of 18 mg/kg; type: functional
Mus musculus [26] = assay: Incidence of disease (mouse type II collagen) was scored as the percentage of animals within each experimental group that exhibited joint or limb inflammation on day 30 at intraperitoneal of dose 12 mg/kg; type: functional
Mus musculus [27] = assay: Tested for antiinflammatory activity on mouse type II collagen arthritis as Paw swelling* of all animals in each group on day 23 at intraperitoneal dose of 18 mg/kg; type: functional
Mus musculus [28] = assay: Incidence of disease (mouse type II collagen) was scored as the percentage of animals within each experimental group that exhibited joint or limb inflammation on day 23 at intraperitoneal dose 12 mg/kg; type: functional
L1210 = assay: Concentration required to inhibit the growth of L1210 cells.; type: functional, cell-based; details: Mus musculus
Mus musculus [29] = assay: Incidence of disease (mouse type II collagen) was scored as the percentage of animals within each experimental group that exhibited joint or limb inflammation on day 30 at intraperitoneal of dose 6 mg/kg; type: functional
Mus musculus [30] = assay: Tested for antiinflammatory activity on mouse type II collagen arthritis as Paw swelling* of all animals in each group on day 30 at intraperitoneal dose of 18 mg/kg; type: functional
Mus musculus [31] = assay: Incidence of disease (mouse type II collagen) was scored as the percentage of animals within each experimental group that exhibited joint or limb inflammation on day 37 at intraperitoneal of dose 12 mg/kg; type: functional
Mus musculus [32] = assay: Incidence of disease (mouse type II collagen) was scored as the percentage of animals within each experimental group that exhibited joint or limb inflammation on day 44 at intraperitoneal of dose 18 mg/kg; type: functional
Mus musculus [33] = assay: Incidence of disease (mouse type II collagen) was scored as the percentage of animals within each experimental group that exhibited joint or limb inflammation on day 44 at intraperitoneal of dose 6 mg/kg; type: functional
Mus musculus [34] = assay: Tested for antiinflammatory activity on mouse type II collagen arthritis as Paw swelling* of all animals in each group on day 30 at intraperitoneal dose of 6 mg/kg; type: functional
Mus musculus [35] = assay: Tested for antiinflammatory activity on mouse type II collagen arthritis as Paw swelling* of all animals in each group on day 30 at intraperitoneal dose of 12 mg/kg; type: functional
Mus musculus [36] = assay: Incidence of disease (mouse type II collagen) was scored as the percentage of animals within each experimental group that exhibited joint or limb inflammation on day 37 at intraperitoneal of dose 18 mg/kg; type: functional
Mus musculus [37] = assay: Incidence of disease (mouse type II collagen) was scored as the percentage of animals within each experimental group that exhibited joint or limb inflammation on day 30 at intraperitoneal of dose 18 mg/kg; type: functional
Mus musculus [38] = assay: Tested for antiinflammatory activity on mouse type II collagen arthritis as Paw swelling* of all animals in each group on day 37 at intraperitoneal dose of 6 mg/kg; type: functional
Mus musculus [39] = assay: Tested for antiinflammatory activity on mouse type II collagen arthritis as Paw swelling* of all animals in each group on day 37 at intraperitoneal dose of 18 mg/kg; type: functional
Mus musculus [40] = assay: Tested for antiinflammatory activity on mouse type II collagen arthritis as Paw swelling* of all animals in each group on day 23 at intraperitoneal dose of 6 mg/kg; type: functional
Mus musculus [41] = assay: Tested for antiinflammatory activity on mouse type II collagen arthritis as Paw swelling* of all animals in each group on day 44 at intraperitoneal dose of 12 mg/kg; type: functional

In the case of `CCC(Cc1cnc2nc(N)nc(N)c2c1C)c1ccc(C(=O)NC(CCC(=O)O)C(=O)O)cc1` (configuration not stated), the Paw swelling (Mus musculus [1]) is reported as 3.09 mm, the Animals (Mus musculus [2]) is reported as 75% and the Animals (Mus musculus [3]) is reported as 38%. It also gave a Paw swelling (Mus musculus [4]) of 2.45 mm, a Paw swelling (Mus musculus [5]) of 2.1 mm and an Animals (Mus musculus [6]) of 50%. It also gave an Animals (Mus musculus [7]) of 0%, a Paw swelling (Mus musculus [8]) of 2.18 mm and an Animals (Mus musculus [9]) of 88%. The Paw swelling (Mus musculus [10]) was 2.99 mm, the Animals (Mus musculus [11]) was 12% and the Paw swelling (Mus musculus [12]) was 2.12 mm. For the same compound, the Animals (Mus musculus [13]) was 88%, the Paw swelling (Mus musculus [14]) was 2.32 mm and the Paw swelling (Mus musculus [15]) was 2.68 mm. It also gave an Animals (Mus musculus [16]) of 0%.

For `C#CCN(Cc1cnc2nc(N)nc(N)c2c1)c1ccc(C(=O)NC(CCC(=O)O)C(=O)O)cc1` (configuration not stated), the Paw swelling (Mus musculus [17]) was 2.3 mm, the Animals (Mus musculus [18]) was 88% and the Animals (Mus musculus [19]) was 75%. The IC50 [20] was 6.3 nM, the Paw swelling (Mus musculus [21]) was 2.17 mm and the Paw swelling (Mus musculus [22]) was 2.65 mm. The Animals (Mus musculus [23]) was 0%, the Animals (Mus musculus [24]) was 0% and the Paw swelling (Mus musculus [25]) was 2.27 mm. For the same compound, the Animals (Mus musculus [26]) was 0%, the Paw swelling (Mus musculus [27]) was 2.16 mm and the Animals (Mus musculus [28]) was 0%. The IC50 (L1210) was 13 nM, the Animals (Mus musculus [29]) was 38% and the Paw swelling (Mus musculus [30]) was 2.13 mm. The Animals (Mus musculus [31]) was 50%, the Animals (Mus musculus [32]) was 38% and the Animals (Mus musculus [33]) was 100%. It also gave a Paw swelling (Mus musculus [34]) of 2.32 mm, a Paw swelling (Mus musculus [35]) of 2.16 mm and an Animals (Mus musculus [36]) of 38%. It also gave an Animals (Mus musculus [37]) of 0%, a Paw swelling (Mus musculus [38]) of 2.46 mm and a Paw swelling (Mus musculus [39]) of 2.23 mm. The Paw swelling (Mus musculus [40]) was 2.12 mm and the Paw swelling (Mus musculus [41]) was 2.49 mm.
